Structures are written as SMILES.

The test system of the assay is phosphorylated Akt at serine 473 (pAKTs473) in primary human lung fibroblasts. Kind of assay: Highthroughput phosphorylated Akt (Ser473) in vitro immunoassay (MSD). Particulars: Fibroblast, 1 h compound, PDGF-BB 10 ng/ml for 10 min, mean of multiple experiments, read-out: mean pIC50, inhibition of pAkt (Ser473) (converted). Format: cell-based. The method, boiled down:
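Primary human lung fibroblasts in 0.4% FBS were preincubated with compound for 1 h at 37 °C (11-point curve, 0.1% DMSO final), then stimulated with 10 ng/ml PDGF-BB for 10 min. pAkt Ser473 in lysates was measured by MSD electrochemiluminescence; IC50 was derived by non-linear regression between stimulated and unstimulated controls.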
As to `CC[C@H]1COCCN1c1cc(C2(S(=O)(=O)N(C)C)CCOCC2)cc(-c2ccc3[nH]c(CNC)cc3n2)n1` [Example 31, 4-{2-[(3S)-3-ethylmorpholin-4-yl]-6-{2-[(methylamino)methyl]-1H-pyrrolo[3,2-b]pyridin-5-yl}pyridin-4-yl}-N,N-dimethyloxane-4-sulfonamide], the IC50 is 2.51 to 10 nM. The same measure for `CNCc1cc2nc(-c3cc(C(C)(C)S(C)(=O)=O)cc(N4C5CCCC4COC5)n3)ccc2[nH]1` [Example 5, 1-(5-(6-(3-oxa-9-azabicyclo[3.3.1]nonan-9-yl)-4-(2-(methylsulfonyl)propan-2-yl)pyridin-2-yl)-1H-pyrrolo[3,2-b]pyridin-2-yl)-N-methylmethanamine]: 3.16 to 316 nM.

With `CNCc1cc2nc(-c3cc(C4(S(C)(=O)=O)CC4)cc(N4CCOC[C@@H]4C)n3)ccc2[nH]1` [Example 20, ({5-[4-(1-methanesulfonylcyclopropyl)-6-[(3S)-3-methylmorpholin-4-yl]pyridin-2-yl]-1H-pyrrolo[3,2-b]pyridin-2-yl}methyl)(methyl)amine], the IC50 was 3.16 to 316 nM.
